Reference: US20250066346A1, “SOLID FORMS OF A BENZTHIAZOLE-PIPERAZINYL-OXAZOLE COMPOUND AND METHODS OF USE THEREOF” (Hepagene Therapeutics (HK) Limited, priority 2022, published 2025)
Counter-ions that a name gives are not always drawn.

Tests used:
Format in all cases: physicochemical
[1] = Form conversion by variable-temperature XRPD (VT-XRPD); conditions: for form after exposing to ambient conditions: ambient conditions for about 10 min; for form change after heating to 120° C. and cooling to 30° C.: with N2 protection, VT-XRPD
Procedure: […] 22.
Based on data above, it would convert to dehydrate state (HCl salt Form C) at low humidity and back to hydrate at high humidity.
HBr salt Form E was observed after N2 purging HBr salt Form D for 20 min at 30° C. via variable-temperature XRPD (VT-XRPD) shown in FIG. 23.
Based on data above, it would convert to dehydrate state (HBr salt Form E) at low humidity and back to hydrate at high humidity.

[2] = Hygroscopicity by dynamic vapor sorption (DVS) at 25° C.
Procedure: DVS was measured via a SMS (Surface Measurement Systems) DVS Intrinsic. The relative humidity at 25° C. was calibrated against deliquescence point of LiCl, Mg(NO3)2 and KCl.

[3] = Solid state stability (XRPD for physical stability, HPLC purity for chemical stability); conditions: for Purity/initial purity: HPLC; for Form change: XRPD
From the text: All the samples were characterized by XRPD for physical stability and HPLC purity for chemical stability evaluation (Table 16).

[4] = Kinetic solubility in water and bio-relevant media (SGF, FaSSIF, FeSSIF) at 37° C.; parameters: key to FC: form change: Yes: form changed; No: form not changed; conditions: for pH: filtered supernatant
Procedure: Agilent 1260 HPLC was utilized and detailed chromatographic conditions are provided in Tables 3 and 4 for purity and solubility test, respectively.
About 20 mg of free base (form A) HCl salt (form B), and HBr salt (form D) were added to a 5-mL glass vials followed by the addition of 4 mL of the corresponding medium/solvent into each glass vial to form a suspension. The vials were capped and rolled at 37° C. (25 rpm). Samples were removed (1 mL) at 1 h, 4 h, and 24 h and centrifuged (14000 rpm, 2 min, room temperature). The supernatant was filtered through 0.22 μm syringe filter (first few drops of filtrate were discarded) for HPLC solubility and pH tests (Table 15). The residual solids were analyzed by XRPD.

COc1cc(C(=O)O)cc2sc(N3CCN(Cc4c(-c5c(Cl)cccc5Cl)noc4C4CC4)C[C@H]3C)nc12 [Form C, (R)-2-(4-((5-cyclopropyl-3-(2,6-dichlorophenyl)isoxazol-4-yl)methyl)-2-methylpiperazin-1-yl)-4-methoxybenzo[d]thiazole-6-carboxylic acid]
form after exposing to ambient conditions [1]: HCl salt Form B was re-obtained
form change after heating to 120° C. and cooling to 30° C. [1]: no form change occurred

COc1cc(C(=O)O)cc2sc(N3CCN(Cc4c(-c5c(Cl)cccc5Cl)noc4C4CC4)C[C@H]3C)nc12 [Form E, (R)-2-(4-((5-cyclopropyl-3-(2,6-dichlorophenyl)isoxazol-4-yl)methyl)-2-methylpiperazin-1-yl)-4-methoxybenzo[d]thiazole-6-carboxylic acid]
form after exposing to ambient conditions [1]: HBr salt Form D was re-obtained
form change after heating to 120° C. and cooling to 30° C. [1]: no form change occurred

COc1cc(C(=O)O)cc2sc(N3CCN(Cc4c(-c5c(Cl)cccc5Cl)noc4C4CC4)C[C@H]3C)nc12 [HBr salt Form D, (R)-2-(4-((5-cyclopropyl-3-(2,6-dichlorophenyl)isoxazol-4-yl)methyl)-2-methylpiperazin-1-yl)-4-methoxybenzo[d]thiazole-6-carboxylic acid]
water uptake ([2]; in the range of 0% RH to 20% RH, platform between 20% RH and 80% RH): 2.6%
Purity/initial purity ([3]; 25° C./60% RH/1 week): 99.9%
Form change ([3]; 25° C./60% RH/1 week): No
Purity/initial purity ([3]; 40° C./75% RH/1 week): 99.9%
Form change ([3]; 40° C./75% RH/1 week): No
HPLC purity after storage (in words) ([3]; 80° C. for 1 day): decreased
Purity/initial purity ([3]; 80° C./1 day): 99.5%
Form change ([3]; 80° C./1 day): No
form change (in words) ([3]; all test conditions): no form change was observed
solubility in FaSSIF and FeSSIF (in words) [4]: significant solubility improvement
FC: form change ([4]; FaSSIF, 1 hr): No
S: solubility ([4]; FaSSIF, 1 hr): 0.32 mg/mL
pH ([4]; FaSSIF, 1 hr): 6.3
FC: form change ([4]; FaSSIF, 4 hrs): No
S: solubility ([4]; FaSSIF, 4 hrs): 0.46 mg/mL
pH ([4]; FaSSIF, 4 hrs): 6.3
FC: form change ([4]; FaSSIF, 24 hrs): No
S: solubility ([4]; FaSSIF, 24 hrs): 0.64 mg/mL
pH ([4]; FaSSIF, 24 hrs): 6.3
FC: form change ([4]; FeSSIF, 1 hr): No
S: solubility ([4]; FeSSIF, 1 hr): 0.66 mg/mL
pH ([4]; FeSSIF, 1 hr): 5.1
FC: form change ([4]; FeSSIF, 4 hrs): No
S: solubility ([4]; FeSSIF, 4 hrs): 0.71 mg/mL
pH ([4]; FeSSIF, 4 hrs): 5.1
FC: form change ([4]; FeSSIF, 24 hrs): No
S: solubility ([4]; FeSSIF, 24 hrs): 0.78 mg/mL
pH ([4]; FeSSIF, 24 hrs): 5.0
FC: form change ([4]; H2O, 1 hr): No
S: solubility ([4]; H2O, 1 hr): 0.0006 mg/mL
pH ([4]; H2O, 1 hr): 3.0
FC: form change ([4]; H2O, 4 hrs): No
S: solubility ([4]; H2O, 4 hrs): 0.0007 mg/mL
pH ([4]; H2O, 4 hrs): 3.0
FC: form change ([4]; H2O, 24 hrs): No
S: solubility ([4]; H2O, 24 hrs): 0.0006 mg/mL
pH ([4]; H2O, 24 hrs): 3.0
FC: form change ([4]; SGF, 1 hr): No
S: solubility ([4]; SGF, 1 hr): 0.031 mg/mL
pH ([4]; SGF, 1 hr): 1.9
FC: form change ([4]; SGF, 4 hrs): No
S: solubility ([4]; SGF, 4 hrs): 0.030 mg/mL
pH ([4]; SGF, 4 hrs): 1.9
FC: form change ([4]; SGF, 24 hrs): Yes
S: solubility ([4]; SGF, 24 hrs): 0.043 mg/mL
pH ([4]; SGF, 24 hrs): 1.7
solubility in SGF, FaSSIF, and FeSSIF compared with free base (form A) and HCl salt (form B) ([4]; SGF, FaSSIF, FeSSIF): improved solubility
solubility in water, ranking among form A, form B, form D ([4]; water): lowest solubility

COc1cc(C(=O)O)cc2sc(N3CCN(Cc4c(-c5c(Cl)cccc5Cl)noc4C4CC4)C[C@H]3C)nc12 [HCl salt Form B, (R)-2-(4-((5-cyclopropyl-3-(2,6-dichlorophenyl)isoxazol-4-yl)methyl)-2-methylpiperazin-1-yl)-4-methoxybenzo[d]thiazole-6-carboxylic acid]
water uptake ([2]; in the range of 0% RH to 30% RH, platform between 30% RH and 95% RH): 2.5%
Purity/initial purity ([3]; 25° C./60% RH/1 week): 100.0%
Form change ([3]; 25° C./60% RH/1 week): No
Purity/initial purity ([3]; 40° C./75% RH/1 week): 100.0%
Form change ([3]; 40° C./75% RH/1 week): No
solid state stability (overall, in words) ([3]; 80° C./1 day, 25° C./60% RH/1 week, 40° C./75% RH/1 week): good solid state stability
Purity/initial purity ([3]; 80° C./1 day): 100.0%
Form change ([3]; 80° C./1 day): No
solubility in FaSSIF and FeSSIF (in words) [4]: significant solubility improvement
FC: form change ([4]; FaSSIF, 1 hr): No
S: solubility ([4]; FaSSIF, 1 hr): 0.29 mg/mL
pH ([4]; FaSSIF, 1 hr): 6.5
FC: form change ([4]; FaSSIF, 4 hrs): No
S: solubility ([4]; FaSSIF, 4 hrs): 0.42 mg/mL
pH ([4]; FaSSIF, 4 hrs): 6.5
FC: form change ([4]; FaSSIF, 24 hrs): No
S: solubility ([4]; FaSSIF, 24 hrs): 0.57 mg/mL
pH ([4]; FaSSIF, 24 hrs): 6.4
FC: form change ([4]; FeSSIF, 1 hr): No
S: solubility ([4]; FeSSIF, 1 hr): 0.48 mg/mL
pH ([4]; FeSSIF, 1 hr): 5.1
FC: form change ([4]; FeSSIF, 4 hrs): No
S: solubility ([4]; FeSSIF, 4 hrs): 0.48 mg/mL
pH ([4]; FeSSIF, 4 hrs): 5.0
FC: form change ([4]; FeSSIF, 24 hrs): No
S: solubility ([4]; FeSSIF, 24 hrs): 0.50 mg/mL
pH ([4]; FeSSIF, 24 hrs): 5.0
FC: form change ([4]; H2O, 1 hr): No
S: solubility ([4]; H2O, 1 hr): 0.0049 mg/mL
pH ([4]; H2O, 1 hr): 6.1
FC: form change ([4]; H2O, 4 hrs): No
S: solubility ([4]; H2O, 4 hrs): 0.0056 mg/mL
pH ([4]; H2O, 4 hrs): 5.9
FC: form change ([4]; H2O, 24 hrs): No
S: solubility ([4]; H2O, 24 hrs): 0.0061 mg/mL
pH ([4]; H2O, 24 hrs): 6.4
FC: form change ([4]; SGF, 1 hr): No
S: solubility ([4]; SGF, 1 hr): 0.061 mg/mL
pH ([4]; SGF, 1 hr): 1.8
FC: form change ([4]; SGF, 4 hrs): No
S: solubility ([4]; SGF, 4 hrs): 0.048 mg/mL
pH ([4]; SGF, 4 hrs): 1.9
FC: form change ([4]; SGF, 24 hrs): Yes
S: solubility ([4]; SGF, 24 hrs): 0.039 mg/mL
pH ([4]; SGF, 24 hrs): 1.8
